From US20240342148A1, “METHODS OF TREATING FACIOSCAPULOHUMERAL MUSCULAR DYSTROPHY WITH LOSMAPIMOD” (Fulcrum Therapeutics, Inc., priority 2021, published 2024)

Assays:
[1] = system: p38a/b MAPK pathway; experiment: Target engagement in blood: pHSP27/HSP27total ELISA after ex vivo sorbitol stimulation; set-up: species or system human
Procedure: Blood samples for target engagement were collected at D1 and Wk16 or Wk36, at the same pre- and post-dose time points as PK samples.
Blood samples for measurement of total heat shock protein 27 (HSP27total) and phosphorylated heat shock protein 27 (pHSP27) were collected into EDTA-containing tubes. Two mL of whole blood was stimulated ex vivo with sorbitol for 30 minutes at room temperature to induce phosphorylation of HSP27 as a measure of p38a/b MAPK activity. Sorbitol stimulation activates the p38a/b MAPK pathway in blood and allows for more robust detection of inhibition of the p38a/b MAPK pathway by losmapimod. Subsequently, samples were lysed on ice and lysates frozen at −80° C. pHSP27 and HSP27total were measured by a validated enzyme-linked immunosorbent assay method (Cambridge Biomedical Inc., Boston, MA, USA and Immunologix, Tampa, FL, USA). Inter- and intra-assay precision for both pHSP27 and HSP27total met the preapproved criteria of <25% CV having been run in 5 replicates with the LLOQ established for pHSP27 at 20.7 ng/ml and ULOQ at 470.1 ng/ml and the LLOQ established for HSP27total at 105.2 ng/ml and ULOQ at 2168.1 ng/mL.

[2] = system: subjects with FSHD; experiment: Safety and tolerability in the RCT; type: in vivo, human; details: 15 mg BID up to 48 weeks
Procedure: All safety analyses were performed using the safety analysis set based on as-treated treatment group. Safety analyses included summaries of TEAEs, clinical laboratory, vital signs and ECGs.

[3] = system: subjects with FSHD; experiment: FSHD health index (FSHD-HI); set-up: species or system human; details: in vivo
Procedure: The FSHD health index questionnaire was administered at all visits except for Wk16. This is a FSHD-specific patient-reported measure of disease burden on activities of daily living, quality of life, and symptom prevalence and severity. It consists of a questionnaire with 116 items developed from qualitative interviews of patients followed by a national cross-sectional validation study. The measure consists of 14 subscales that measure a patient's perception of their ambulation and mobility, hand function, shoulder and arm function, emotional health, back/chest/abdomen strength, fatigue, pain, eating function, ability to do activities, communication ability, satisfaction in social situations, performance in social situations, body image and cognition. Scoring was performed centrally by the developer.

[4] = system: subjects with FSHD; experiment: Reachable workspace, Open Label Study, exploratory annualized analysis; type: in vivo, human; details: with and without weights
From the text: In the Open Label Study, reachable workspace (RWS) with and without weights has also been evaluated. FIG. 27 provides exploratory annualized percentage changes of RWS from baseline of patients participating in the study.

[5] = Muscle losmapimod concentrations in needle biopsies; type: in vivo; details: human, po, 15 mg BID, 15 mg orally BID
Procedure: Muscle needle biopsies were performed using the Bergstrom needle or fine needle at D1 and Wk16, or Wk36 if the muscle biopsy could not be performed at Wk16. The choice of the muscle(s) to be biopsied was determined by the investigator, informed by MRI taken during screening. Only those STIR+ muscles with 10%≤MFF≤40% were eligible for biopsy. […] The bilateral vastus lateralis, vastus medialis, lateral gastrocnemius, medial gastrocnemius, and tibialis anterior were evaluated for eligibility by MRI using a central reader. The Wk16 or Wk36 muscle needle biopsies were performed in the same approximate location as the pretreatment (D1) muscle biopsy. At baseline, MRI fiducials were placed in order to identify the location for the needle biopsy. Coordinates in reference to the closest fiducial defined the location for the muscle biopsy. […] Approximately 15-40 mg of tissue was obtained at each biopsy and frozen in liquid nitrogen within 60 seconds after excision and stored at −80° C. (SciSafe Inc. Billerica, MA, USA) until analysis.
Plasma and muscle losmapimod concentrations were measured by 2 validated bioanalytical high-performance liquid chromatography methods by PPD, USA (PPD 2019).

[6] = system: subjects with FSHD; experiment: Reachable workspace (RWS) relative surface area, RCT; type: in vivo, human
Procedure: Continuous secondary and exploratory efficacy endpoints with 2 or more postbaseline follow-ups were analyzed using a mixed-effects model for repeated measures (MMRM), with change from baseline as the dependent variable, and treatment group, visit, treatment group-by-visit interaction, and FSHD repeat number category as fixed effects, and baseline value as a covariate. An unstructured covariance matrix was used to model the correlations among repeated measurements within each subject. The Kenward-Roger approximation was used to estimate denominator degrees of freedom. The RWS RSA score was also analyzed using a linear mixed-effects model, with treatment group as a fixed effect, and intercept, time and treatment group-by-time interaction as random effects, and with adjustment for FSHD repeat number category and region (USA, Canada, and EU). An unstructured covariance matrix was used. The RWS was performed at all visits, except for Week 16. It uses a single, 3D sensor-based system (Microsoft […]) that can unobtrusively detect subjects' RWS and reflects individual global upper extremity (UE) function, including shoulder and proximal arm. RWS has high reliability, repeatability, face validity, feasibility, sensitivity to change, and promise as a clinical outcome assessment (COA) for FSHD and other neuromuscular disorders. During the evaluation, patients were seated in front of the Microsoft […] sensor and underwent a standardized UE movement protocol while looking at a TV monitor. The evaluation was performed with and without 500 g weights two times per visit. All sites were provided and trained with the same standardized software and hardware by the sponsor. A central reader was responsible for training, quality control, data analysis, and standardization of the RWS across all sites in the study.

[7] = system: subjects with FSHD1; experiment: Muscle ultrasound echogenicity, open-label study in FSHD1; type: in vivo, human
Procedure: Fourteen subjects age 18 to 65 years with genetically confirmed FSHD1, clinical severity score of 2 to 4 (range 0-5) and MRI-eligible skeletal muscles for needle biopsy received open-label 15 mg twice daily losmapimod for 52 weeks with the primary objective of safety. Assessments included safety, MRI, muscle ultrasound (US), clinical outcomes, and PROs. US was performed on 7 muscles bilaterally using a standardized protocol. US echointensity was expressed as a z-score relative to matched healthy controls, with abnormal being defined as >2.

[8] = open-label 15 mg twice daily, 52 weeks

Cc1c(F)cc(C(=O)NC2CC2)cc1-c1ccc(C(=O)NCC(C)(C)C)cn1 [losmapimod, 6-(5-cyclopropylcarbamoyl-3-fluoro-2-methyl-phenyl)-N-(2,2-dimethylpropyl-)-nicotinamide]
Reduction of pHSP27/HSP27total compared to placebo at Cmax [1]: 48.0-70.2% | Safety and tolerability [2]: favorable safety and tolerability | FSHD-HI vs placebo [3]: no difference | Annualized RWS increase from baseline, Q1 and Q3 (largest increases) [4]: 7-17% | concentration at 16 weeks ([5]; Wk16 biopsy, read-out: Concentrations in muscles at Wk16): 61 ± 7.7 ng/g | concentration at 36 weeks ([5]; Wk36 biopsy, read-out: Concentrations in muscles at Wk36): 91.1 ± 10.7 ng/g | RSA change, dominant arm ([6]; 0-1.25 scale): 0.019 | RSA change, non-dominant arm ([6]; 0-1.25 scale): 0.021 | RSA difference vs placebo, non-dominant arm ([6]; 0-1.25 scale, 95% CI 0.0007, 0.09, p<0.05): 0.045 | RSA difference vs placebo, dominant arm ([6]; 0-1.25 scale, 95% CI 0.017, 0.118, p=0.01): 0.067 | Annualized rate of change in total RSA, non-dominant, annual percent change ([6]; weighted assessment, p=0.01): 4.88% | Annualized rate of change in total RSA, dominant, annual percent change ([6]; weighted assessment, p=0.07): 0.28% | Mean (SD) change from baseline in echogenicity of all muscles [7, 8]: -0.17 (0.9) z-score | Mean (SD) change from baseline in echogenicity, lower extremities [7, 8]: −0.13 (1.0) z-score | Mean (SD) change from baseline in echogenicity, upper extremity muscles [7, 8]: −0.32 (0.9) z-score | Distribution of echogenicity z-scores of muscles at baseline versus the last visit ([7]; z-score classes <2, 2-4, 4-6, >6): stayed the same or decreased
